Source: patent US12685313B2, “Agricultural composition comprising kasugamycin” (UPL Corporation Limited, priority 2021, dated 2026)

Columns and labels:
[1] = system: Fusarium oxysporum; assay: In vitro control of Fusarium oxysporum on PDA medium; type: cell-based; conditions: Fusarium oxysporum from potato, dose 1 L/400 L water, 28-30° C., dark, 7 days
Experimental: A strain of Fusarium oxysporum isolated from potato was cultivated in a solid potato dextrose agar (PDA) medium. The efficacy of the mixture of kasugamycin and laminarin in a 1:1 ratio, and each component individually was tested.
(§1) The in vitro assessment of the products effectiveness was carried out as per the treatments discussed in Table 2. Accordingly, the components in each treatment were dissolved in the PDA culture medium at the dose indicated above. The mixture was homogenized and poured into sterile petri dishes. Explants of 5 mm diameter of the fungus strain Fusarium oxysporum were placed on the petri dishes with PDA. The dishes were incubated inverted, in dark conditions at a temperature of 28-30° C. The evaluation of the inhibition of the fungus was carried out 7 days later.
This effectiveness of all treatments as measured by percent reduction in the Fusarium oxysporum growth, was also evaluated according to Colby's equation as below. […]
If the actual/observed anti-phytopathogenic efficacy of the kasugamycin and laminarin combination against Fusarium oxysporum exceeds the calculated value, then the activity of the combination is super additive, i.e. a synergistic effect exists. In this case, the efficacy which was actually observed must be greater than the value for the expected efficacy (E) calculated from the abovementioned formula.

[2] = system: Alternaria alternata; assay: In vitro control of Alternaria alternata on PDA medium; type: cell-based; conditions: Alternaria alternata from potato, dose 1 L/400 L water, 28-30° C., dark, 7 days
Experimental: A strain of Alternaria alternata isolated from potato was cultivated in a solid potato dextrose agar (PDA) medium. The efficacy of the mixture of kasugamycin and laminarin in a 1:1 ratio, and each component individually was tested.
as §1, with “4.” for “2.”, “in” for “in the”, “Alternaria alternata” for “the fungus strain Fusarium oxysporum”, “inverted” for “inverted,”
The present inventors have calculated the Colby value of the synergistic combination as discussed in Example 4 above.

| Molecule | % Observed control [1] | % Observed control [2] |
| --- | --- | --- |
| C[C@H]1O[C@H](O[C@H]2[C@H](O)[C@@H](O)[C@@H](O)[C@H](O)[C@@H]2O)[C@@H](N)C[C@@H]1NC(=N)C(=O)O [Kasugamycin] | 48% | 54% |
| Laminarin | 11% | 30% |
